According to US10144715B2, “Piperazine derivatives as liver X receptor modulators” (priority 2014, dated 2018):
Read-outs that look alike come from different tables or passages of the source.

What was measured:
LXR α LBD protein = LXR α LBD protein (Homo sapiens (Human), UniProt Q13133); test: LXR α radioligand binding assay (SPA, competition with [3H]TO901317); settings: read-out: LXRα Binding Ki
LXR β LBD protein = LXR β LBD protein (Homo sapiens (Human), UniProt P55055); test: biochemical; format: binding; settings: read-out: LXRβ Binding Ki
Sequence of LXR β LBD protein (P55055 222-460 limits assumed): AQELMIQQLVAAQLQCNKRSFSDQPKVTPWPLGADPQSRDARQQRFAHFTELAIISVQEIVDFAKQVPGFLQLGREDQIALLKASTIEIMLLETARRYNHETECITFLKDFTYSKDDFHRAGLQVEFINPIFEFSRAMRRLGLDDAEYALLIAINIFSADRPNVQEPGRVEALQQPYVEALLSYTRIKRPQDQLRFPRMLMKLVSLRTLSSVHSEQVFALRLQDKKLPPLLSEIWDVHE

[1] = biological target: T1, Gal4 DNA binding domain fused to the LBD of LXRα in HEK293 cells (Homo sapiens (Human), UniProt Q13133); test: LXR luciferase transcriptional reporter gene assay, agonist mode, LXRα; format: cell-based
T1 sequence (Q13133 209-447): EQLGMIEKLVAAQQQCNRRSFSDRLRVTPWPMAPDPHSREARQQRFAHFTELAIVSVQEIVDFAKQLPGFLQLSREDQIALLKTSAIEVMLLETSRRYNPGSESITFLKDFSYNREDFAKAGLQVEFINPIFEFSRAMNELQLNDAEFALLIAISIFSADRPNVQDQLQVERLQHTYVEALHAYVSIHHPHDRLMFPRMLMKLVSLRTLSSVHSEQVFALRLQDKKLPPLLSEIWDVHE

[2] = biological target: T2, Gal4 DNA binding domain fused to the LBD of LXRβ in HEK293 cells (Homo sapiens (Human), UniProt P55055); test: cell-based
T2 sequence (P55055 222-460 limits assumed): as the sequence (P55055 222-460 limits assumed) above

[3] = biological target: T1, Gal4 DNA binding domain fused to the LBD of LXRα in HEK293 cells; test: LXR luciferase transcriptional reporter gene assay, antagonist mode (200 nM T0901317), LXRα; format: cell-based
[4] = biological target: T2, Gal4 DNA binding domain fused to the LBD of LXRβ in HEK293 cells; test: cell-based; format: cell-based
[5] = antagonist mode, 200 nM T0901317, HEK293 reporter gene assay
[6] = Biological Test Example 2, agonist mode
[7] = Biological Test Example 2, agonist mode, read-out: Cell LXRβ EC50
[8] = antagonist mode, 200 nM T0901317, HEK293 reporter gene assay, read-out: Cell LXRβ IC50
[9] = agonist mode, read-out: Cell LXRα EC50
[10] = antagonist mode, 200 nM T0901317, HEK293 reporter gene assay, read-out: Cell LXRα IC50

Sequence of LXR α LBD protein (Q13133 209-447): as the sequence (Q13133 209-447) above

Row | Structure (SMILES) | Ki (LXR α LBD protein) | Ki (LXR β LBD protein) | EC50 ([1]; read-out: Cell LXRα EC50) | EC50 [2] | Cell LXRα efficacy [3] | IC50 ([3]; read-out: Cell LXRα IC50) | IC50 [4] | Cell LXRβ efficacy [4, 5] | Cell LXRα efficacy [1] | EC50 [1, 9] | IC50 [3, 10] | other results
1 | Cc1ccc(C2CC2)nc1N1CCN(c2cccc(S(C)(=O)=O)c2)C[C@H]1C(C)C [40-3, (R)-1-(6-cyclopropyl-3-methylpyridin-2-yl)-2-isopropyl-4-(3-(methylsulfonyl)phenyl)piperazine] | 724 nM | 61 nM | > 20000 nM | > 20000 nM | 2454 (90) % | 2450 nM | 288 nM | 288 (88) % | – | – | – | –
2 | CS(=O)(=O)c1cccc(N2CCN(C[C@@H]3C[C@@H]4[C@H](C3)C4(F)F)[C@@H](c3ccccc3)C2)c1 (single isomer, unassigned) [48-66] | 804 nM | – | 2520 nM | – | 7360 (100) % | 7360 nM | – | 81% | 2518 (40) % | – | – | Ki (LXR β LBD protein; Biological Test Example 1): 103 nM; Cell LXRβ efficacy [2, 6]: 20%; EC50 [2, 7]: 716 nM; IC50 [4, 8]: 824 nM
3 | Cc1ccc(N2CCN(c3cccc(S(C)(=O)=O)c3)C[C@H]2C(C)C)nc1C1CC1 [40-2, (R)-1-(6-cyclopropyl-5-methylpyridin-2-yl)-2-isopropyl-4-(3-(methylsulfonyl)phenyl)piperazine] | 173 nM | 14 nM | 3500 nM | > 20000 nM | 792 (80) % | 792 nM | 146 nM | – | 3505 (14) % | – | – | Cell LXRβ efficacy [4]: 146 (93) %
4 | CNS(=O)(=O)c1cc(N2CCN(c3ncc(C(C)(C)O)c(C(F)(F)F)n3)[C@H](C(C)C)C2)ccc1F [10-3, (R)-2-fluoro-5-(4-(5-(2-hydroxypropan-2-yl)-4-(trifluoromethyl)pyrimidin-2-yl)-3-isopropylpiperazin-1-yl)-N-methylbenzenesulfonamide] | 135 nM | 5 nM | – | 69 nM | 2003 (83) % | – | 242 nM | – | 646 (35) % | 646 nM | 2000 nM | Cell LXRβ efficacy ([2]; agonist mode): 69 (24) %
5 | CS(=O)(=O)c1cccc(N2CCN(C[C@H]3CC[C@]4(CC3)CC4(F)F)[C@@H](c3ccccc3)C2)c1 (single isomer, unassigned) [48-71] | 50 nM | – | 236 nM | – | – | > 10000 nM | – | 54% | 236 (57) % | – | – | Ki (LXR β LBD protein; Biological Test Example 1): 10 nM; Cell LXRβ efficacy [2, 6]: 25%; EC50 [2, 7]: 75 nM; IC50 [4, 8]: 163 nM
6 | CS(=O)(=O)c1cccc(N2CCN(C[C@H]3C[C@@H]4[C@H](C3)C4(F)F)[C@@H](c3ccccc3)C2)c1 [48-64, (S)-1-(((1R,3r,5S)-6,6-difluorobicyclo[3.1.0]hexan-3-yl)methyl)-4-(3-(methylsulfonyl)phenyl)-2-phenylpiperazine] | 397 nM | – | 1820 nM | – | 4272 (104) % | 4270 nM | – | 85% | 1817 (38) % | – | – | Ki (LXR β LBD protein; Biological Test Example 1): 38 nM; Cell LXRβ efficacy [2, 6]: 11%; EC50 [2, 7]: 411 nM; IC50 [4, 8]: 288 nM
7 | CS(=O)(=O)c1cccc(N2CCN(C[C@H]3CC[C@@](C)(O)CC3)[C@@H](c3ccccc3)C2)c1 (single isomer, unassigned) [48-5] | 1270 nM | 123 nM | > 20000 nM | – | 1169 (61) % | 1170 nM | – | 93% | – | – | – | EC50 ([2]; agonist mode, read-out: Cell LXRβ EC50): > 20000 nM; IC50 [4, 8]: 118 nM
8 | CC(C)[C@@H]1CN(c2cccc(S(C)(=O)=O)c2)CCN1c1nccc(OC(F)F)n1 [44-2, (R)-4-(difluoromethoxy)-2-(2-isopropyl-4-(3-(methylsulfonyl)phenyl)piperazin-1-yl)pyrimidine] | 520 nM | 35 nM | – | 205 nM | – | – | 177 nM | – | 2594 (24) % | – | – | EC50 [1]: 2590 nM; Cell LXRβ efficacy [2]: 205 (10) %; IC50 [3]: 1470 nM; Cell LXRα efficacy [3, 5]: 105%; Cell LXRβ efficacy [4]: 177 (103) %
9 | CCOC(=O)CN(C)C(=O)c1cnc(N2CCN(c3ccc(F)c(S(C)(=O)=O)c3)C[C@H]2C(C)C)nc1C(F)(F)F [17-16, ethyl (R)-N-(2-(4-(4-fluoro-3-(methylsulfonyl)phenyl)-2-isopropylpiperazin-1-yl)-4-(trifluoromethyl)pyrimidine-5-carbonyl)-N-methylglycinate] | 2170 nM | 194 nM | – | > 20000 nM | 1530 (99) % | – | 361 nM | – | – | > 20000 nM | 1530 nM | Cell LXRβ efficacy [4]: 361 (86) %
10 | CC(O)c1cnc(N2CCN(c3ccc(F)c(S(C)(=O)=O)c3)C[C@H]2C(C)C)nc1C(F)(F)F (mixture of isomers) [Cpd No 12-1, 1-(2-((R)-4-(4-fluoro-3-(methylsulfonyl)phenyl)-2-isopropylpiperazin-1-yl)-4-(trifluoromethyl)pyrimidin-5-yl)ethan-1-ol] | 230 nM | 23 nM | 969 nM | 154 nM | 8047 (105) % | 8050 nM | 252 nM | – | 969 (46) % | – | – | Cell LXRβ efficacy ([2]; agonist mode): 154 (37) %
11 | CC(C)[C@@H]1CN(c2cc(F)c(CO)c(S(C)(=O)=O)c2)CCN1c1ncc(CO)c(C(F)(F)F)n1 [Cpd No 11-6, (R)-(2-fluoro-4-(4-(5-(hydroxymethyl)-4-(trifluoromethyl)pyrimidin-2-yl)-3-isopropylpiperazin-1-yl)-6-(methylsulfonyl)phenyl)methanol] | 71 nM | 2 nM | – | 16 nM | – | – | 1360 nM | 1355 (65) % | 216 (58) % | 216 nM | 3860 nM | Cell LXRβ efficacy ([2]; agonist mode): 16 (46) %
12 | CC(C)[C@@H]1CN(c2ccc(F)c(S(C)(=O)=O)c2)CCN1c1ncc(C(=O)N(C)CCCO)c(C(F)(F)F)n1 [17-11, (R)-2-(4-(4-fluoro-3-(methylsulfonyl)phenyl)-2-isopropylpiperazin-1-yl)-N-(3-hydroxypropyl)-N-methyl-4-(trifluoromethyl)pyrimidine-5-carboxamide] | 4880 nM | 548 nM | – | > 20000 nM | – | – | 875 nM | 875 (90) % | – | > 20000 nM | 3460 nM | –
13 | CCCCN(C)C(=O)c1cnc(N2CCN(c3ccc(F)c(S(C)(=O)=O)c3)C[C@H]2C(C)C)nc1C(F)(F)F [17-10, (R)-N-butyl-2-(4-(4-fluoro-3-(methylsulfonyl)phenyl)-2-isopropylpiperazin-1-yl)-N-methyl-4-(trifluoromethyl)pyrimidine-5-carboxamide] | 558 nM | 65 nM | – | > 20000 nM | 501 (94) % | – | 100 nM | 100 (89) % | – | > 20000 nM | 501 nM | –
14 | CC(C)[C@@H]1CN(c2ccc(F)c(S(C)(=O)=O)c2)CCN1c1ncc(C(N)=O)c(C(F)(F)F)n1 [Cpd No 17-2, (R)-2-(4-(4-fluoro-3-(methylsulfonyl)phenyl)-2-isopropylpiperazin-1-yl)-4-(trifluoromethyl)pyrimidine-5-carboxamide] | 876 nM | 58 nM | – | 91 nM | 3715 (97) % | – | 439 nM | – | 1789 (17) % | 1790 nM | 3720 nM | Cell LXRβ efficacy [2]: 91 (10) %; Cell LXRβ efficacy [4]: 439 (97) %
